Experimental data reported in ChEMBL document CHEMBL1146993, “Synthesis and structure-activity relationships of novel dipeptides and reduced dipeptides as ligands for melanocortin subtype-4 receptor” (Bioorg Med Chem Lett, 2006).

Assays:
Assay type in all cases: cell-based
[1] = molecular target: Melanocortin receptor 4 (Homo sapiens, UniProt P32245); assay: Displacement of [125I]NDP-alpha-MSH from cloned human MC4R expressed in HEK293 cells
[2] = molecular target: Melanocyte-stimulating hormone receptor (Homo sapiens, UniProt Q01726); assay: Displacement of [125I]NDP-alpha-MSH from cloned human MC1R expressed in HEK293 cell
Melanocyte-stimulating hormone receptor, sequence (Q01726 whole entry): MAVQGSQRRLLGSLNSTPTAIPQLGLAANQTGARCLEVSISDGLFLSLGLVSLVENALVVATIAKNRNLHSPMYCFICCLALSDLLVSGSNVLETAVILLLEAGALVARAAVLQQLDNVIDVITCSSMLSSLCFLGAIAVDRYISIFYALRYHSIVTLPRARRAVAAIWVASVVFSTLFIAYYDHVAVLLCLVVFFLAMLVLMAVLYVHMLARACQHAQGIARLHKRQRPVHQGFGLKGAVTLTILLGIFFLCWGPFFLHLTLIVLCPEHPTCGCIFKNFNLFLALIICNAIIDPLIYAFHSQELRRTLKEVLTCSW

[3] = molecular target: Melanocortin receptor 3 (Homo sapiens, UniProt P41968); assay: Displacement of [125I]NDP-alpha-MSH from cloned human MC3R expressed in HEK293 cell
Melanocortin receptor 3, sequence (P41968 whole entry): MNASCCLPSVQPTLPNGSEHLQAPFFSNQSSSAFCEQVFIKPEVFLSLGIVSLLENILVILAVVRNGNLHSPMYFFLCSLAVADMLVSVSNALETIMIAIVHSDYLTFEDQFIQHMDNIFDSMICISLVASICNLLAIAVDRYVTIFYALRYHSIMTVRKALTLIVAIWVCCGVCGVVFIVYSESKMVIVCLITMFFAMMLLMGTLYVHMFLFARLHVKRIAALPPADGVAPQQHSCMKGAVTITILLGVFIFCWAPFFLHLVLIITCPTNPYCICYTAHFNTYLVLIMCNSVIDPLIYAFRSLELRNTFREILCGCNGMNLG

[4] = molecular target: Melanocortin receptor 5 (Homo sapiens, UniProt P33032); assay: Displacement of [125I]NDP-alpha-MSH from cloned human MC5R expressed in HEK293 cell
Melanocortin receptor 5, sequence (P33032 whole entry): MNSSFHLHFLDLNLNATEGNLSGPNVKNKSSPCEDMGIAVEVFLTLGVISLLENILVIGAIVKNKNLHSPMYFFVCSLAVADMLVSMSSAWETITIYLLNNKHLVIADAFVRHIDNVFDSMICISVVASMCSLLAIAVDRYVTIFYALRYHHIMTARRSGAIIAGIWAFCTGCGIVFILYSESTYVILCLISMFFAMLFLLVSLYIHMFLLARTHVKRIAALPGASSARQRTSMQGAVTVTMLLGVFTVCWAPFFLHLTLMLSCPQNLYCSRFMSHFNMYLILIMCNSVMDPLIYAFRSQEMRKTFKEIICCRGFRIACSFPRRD

Melanocortin receptor 4, sequence (P32245 whole entry): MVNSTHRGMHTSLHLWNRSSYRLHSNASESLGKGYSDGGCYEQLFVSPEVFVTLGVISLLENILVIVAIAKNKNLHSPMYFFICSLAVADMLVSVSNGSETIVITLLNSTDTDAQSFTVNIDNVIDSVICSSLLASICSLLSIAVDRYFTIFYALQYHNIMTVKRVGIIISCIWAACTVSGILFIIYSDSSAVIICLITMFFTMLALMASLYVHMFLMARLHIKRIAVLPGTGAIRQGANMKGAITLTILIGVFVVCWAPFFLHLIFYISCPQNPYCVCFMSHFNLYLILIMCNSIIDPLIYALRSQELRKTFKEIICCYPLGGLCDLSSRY

Ki [1] [nM] | Ki [2] [nM] | Ki [3] [nM] | Ki [4] [nM] | Compound
95.6 | 7000 | 1400 | 920 | CCN(CC)CC(c1ccccc1F)N1CCN(C(=O)[C@@H](Cc2ccc(Cl)cc2)NC(=O)c2cc3ccccc3cn2)CC1 (some centres undefined)
40.6 | 5800 | 7000 | 950 | CCN(CC)CC(c1ccccc1F)N1CCN(C(=O)[C@@H](Cc2ccc(Cl)cc2)NC(=O)[C@H]2Cc3ccccc3CN2)CC1 (some centres undefined)
10.4 | 3000 | 4200 | 910 | CCN(CC)CC(c1ccccc1F)N1CCN(C(=O)[C@@H](Cc2ccc(Cl)cc2)NC(=O)CC2NCCc3ccccc32)CC1 (some centres undefined)
5.8 | 7000 | 1900 | 420 | CCN(CC)CC(c1ccccc1F)N1CCN(C(=O)[C@@H](Cc2ccc(Cl)cc2)NC(=O)C2Cc3ccccc3C(C)(C)N2)CC1 (some centres undefined)
7.3 | 6000 | 3400 | 1200 | CCN(CC)CC(c1ccccc1F)N1CCN(C(=O)[C@@H](Cc2ccc(Cl)cc2)NC(=O)CC2NCc3ccccc32)CC1 (some centres undefined)
17.3 | 8600 | 4600 | 2000 | CCN(CC)CC(c1ccccc1F)N1CCN(C(=O)[C@@H](Cc2ccc(Cl)cc2)NC(=O)CC2c3ccccc3CN2C)CC1 (some centres undefined)
73.7 | 20000 | 16000 | 1400 | CCN(CC)CC(c1ccccc1F)N1CCN(C(=O)[C@@H](Cc2ccc(Cl)cc2)NC(=O)CC2(C)NCc3ccccc32)CC1 (some centres undefined)
178 | – | – | – | CCN(CC)CC(c1ccccc1Cl)N1CCN(C(=O)[C@@H](Cc2ccc(Cl)cc2)NC(=O)CC2NCc3ccccc32)CC1 (stereo in doubt; 40a)
18.1 | – | – | – | CCN(CC)CC(c1ccccc1Cl)N1CCN(C(=O)[C@@H](Cc2ccc(Cl)cc2)NC(=O)CC2NCc3ccccc32)CC1 (stereo in doubt; 40b)
107 | – | – | – | CCN(CC)CC(c1ccccc1Cl)N1CCN(C(=O)[C@@H](Cc2ccc(Cl)cc2)NC(=O)CC2NCc3ccccc32)CC1 (stereo in doubt; 41a)
5.3 | – | – | – | CCN(CC)CC(c1ccccc1Cl)N1CCN(C(=O)[C@@H](Cc2ccc(Cl)cc2)NC(=O)CC2NCc3ccccc32)CC1 (stereo in doubt; 41b)
30.2 | – | – | – | CCN(CC)CC(c1ccccc1Cl)N1CCN(C(=O)[C@@H](Cc2ccc(Cl)cc2)NC(=O)CC2NCCc3ccccc32)CC1 (stereo in doubt; 42)
6.4 | – | – | – | CCN(CC)CC(c1ccccc1Cl)N1CCN(C(=O)[C@@H](Cc2ccc(Cl)cc2)NC(=O)CC2NCCc3ccccc32)CC1 (stereo in doubt; 43)
